Experimental data as given in US12264173B2 (GILEAD SCIENCES, INC., priority 2020, dated 2025).
Like-named read-outs stand apart in the source and are kept apart here.

Experiments:
Assay type in all cases: cell-based
[1] = test system: HRV16; assay: HRV16 HeLa EC50 (cytopathic effect in H1-HeLa cells)
Method in brief: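 H1-HeLa cells seeded one day before, given 3-fold serial compound dilutions in triplicate just prior to infection with pre-titrated virus. Incubated 96 h at 33 °C/5% CO2; protection from cytopathic effect read as viability by CellTiter-Glo luminescence, normalised to infected untreated (0%) and uninfected (100%) controls.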

[2] = test system: RSV A2; assay: RSV NHBE EC50 (RSV A2 antiviral assay in NHBE cells); settings: Table 3, NHBE cells, RSV A2, 4 days, read-out: RSV NHBE EC50
Method in brief: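 NHBE cells (≤6 passages) were seeded at 7,500 cells per well, treated with 3-fold serially diluted compound at 0.05% DMSO, then infected with RSV A2 at 1×10^4.5 TCID/mL. After 4 days at 37° C, viability was measured by CellTiter-Glo luminescence.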

[3] = test system: DENV2 replicon; assay: DENV-2 Huh-7 Rep EC50 (replicon luminescence); settings: read-out: DENV-2 REP Huh7 EC50
Method: In 384 well plates (Greiner, Cat #781091), compounds were acoustically transferred at 200 nl per well in a 8 compound (4 replicates) or 40 compound dose response format (3 replicates). For all plates tested, Balapiravir, GS-5734 and NITD008 were included as positive inhibition controls alongside 0% inhibition, DMSO-only negative control wells. Following compound addition, Huh-7 cells containing the DENV2 replicon construct were harvested following standard cell culture procedures and were adjusted to a concentration of 1.25E5 cells/mL in cell culture media composed of cDMEM without genticin. 40 μL of the cell stock was then added to each well for a final cell density of 5,000 cells/well. Cell and compound mixtures were incubated at 37° C./5% CO2 for 48 hours. Prior to harvesting cells, EnduRen Live Cell Substrate (Promega, Cat #E6481) was prepared by suspending 3.4 mg into 100 uL of DMSO to generate a 60 mM stock solution. The stock solution was then diluted 1:200 in pre-warmed cDMEM and 10 uL of this diluted solution was added to each well of the 384 well plates. Plates were then centrifuged at 500 rpm briefly and were placed on a plate shaker for 2 min. Following mixing, plates were incubated at […] for 1.5 hours prior to measuring luminescence on an Envision luminometer.

[4] = test system: RSV strain A2; assay: microbe, parasite or virus in culture; settings: Table 3, HEp-2 cells, RSV A2, 4 days, read-out: RSV HEp-2 EC50
Method in brief: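 Cytopathic-effect protection assay: HEp-2 cells (50,000/mL) infected with pre-titered RSV A2 onto 3-fold serial compound dilutions, incubated 4 days at 37° C. Cell viability read by CellTiter-Glo luminescence; percent inhibition derived against 0% and 100% virus-inhibition controls.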

[5] = Table 3; H1-HeLa cells, 96 h; read-out: HRV16 HeLa EC50
[6] = Table 3, Huh-7 DENV2 replicon cells, 48 hours
[7] = 96 h, Table 3; H1-HeLa cells, 96 h; read-out: HRV16 HeLa EC50
[8] = human respiratory syncytial virus, NHBE, 96 h
[9] = Dengue virus, DENV2, Huh-7, 48 h
[10] = human respiratory syncytial virus, HEp-2, 96 h

CCC(=O)O[C@H]1[C@H](c2ccc3c(N)ncnn23)O[C@](C#N)(COP(=O)(N[C@@H](C)C(=O)OC2COC2)Oc2ccccc2)[C@H]1OC(=O)CC (single isomer, unassigned) [Example 175]
EC50 [1, 5]: 0.085 µM | EC50 [2]: 0.017 µM | EC50 [3, 6]: 9.51 µM | EC50 [4]: 0.087 µM

CCC(=O)O[C@H]1[C@H](c2ccc3c(N)ncnn23)O[C@](C#N)(COP(=O)(N[C@@H](C)C(=O)OC2COC2)Oc2ccccc2)[C@H]1OC(=O)CC (single isomer, unassigned) [Example 176]
EC50 [1, 5]: 0.142 µM | EC50 [2]: 0.016 µM | EC50 [3, 6]: 9.44 µM | EC50 [4]: 0.182 µM

CC(C)OC(=O)C(C)NP(=O)(OCC1(C#N)OC(c2ccc3c(N)ncnn23)C(OC(=O)C(C)C)C1OC(=O)C(C)C)Oc1ccc(C(=O)N(C)C)cc1 (single isomer, unassigned) [Example 178]
EC50 [1, 5]: 1.07 µM | EC50 [2]: 0.163 µM | EC50 [3, 6]: 53.2 µM | EC50 [4]: 0.633 µM

CC(C)OC(=O)C(C)NP(=O)(OCC1(C#N)OC(c2ccc3c(N)ncnn23)C(OC(=O)C(C)C)C1OC(=O)C(C)C)Oc1ccc(C(=O)N(C)C)cc1 (single isomer, unassigned) [Example 179]
EC50 [1, 5]: 0.731 µM | EC50 [2]: 0.1 µM | EC50 [3, 6]: 29.4 µM | EC50 [4]: 0.161 µM

CC(C)C(=O)O[C@H]1[C@H](c2ccc3c(N)ncnn23)O[C@](C#N)(COP(=O)(N[C@@H](C)C(=O)OCC2CCOCC2)Oc2ccccc2)[C@H]1OC(=O)C(C)C (single isomer, unassigned) [Example 182]
EC50 [1, 5]: 0.177 µM | EC50 [2]: 0.017 µM | EC50 [3, 6]: 3.5 µM | EC50 [4]: 0.088 µM

CCCOC(=O)[C@H](C)NP(=O)(OC[C@@]1(C#N)O[C@@H](c2ccc3c(N)ncnn23)[C@H](OC(=O)CC)[C@@H]1OC(=O)CC)Oc1ccccc1 (single isomer, unassigned) [Example 188]
EC50 [1, 5]: 0.102 µM | EC50 [2]: 0.028 µM | EC50 [3, 6]: 6.92 µM | EC50 [4]: 0.031 µM

CCCOC(=O)[C@H](C)NP(=O)(OC[C@@]1(C#N)O[C@@H](c2ccc3c(N)ncnn23)[C@H](OC(=O)CC)[C@@H]1OC(=O)CC)Oc1ccccc1 (single isomer, unassigned) [Example 189]
EC50 [1, 5]: 0.114 µM | EC50 [2]: 0.051 µM | EC50 [3, 6]: 8.84 µM | EC50 [4]: 0.036 µM

CCCOC(=O)[C@H](C)NP(=O)(OC[C@@]1(C#N)O[C@@H](c2ccc3c(N)ncnn23)[C@H](OC(=O)C(C)C)[C@@H]1OC(=O)C(C)C)Oc1ccccc1 (single isomer, unassigned) [Example 191]
EC50 [1, 5]: 0.064 µM | EC50 [2]: 0.008 µM | EC50 [3, 6]: 2.7 µM | EC50 [4]: 0.023 µM

CCCOC(=O)[C@H](C)NP(=O)(OC[C@@]1(C#N)O[C@@H](c2ccc3c(N)ncnn23)[C@H](OC(=O)C(C)C)[C@@H]1OC(=O)C(C)C)Oc1ccccc1 (single isomer, unassigned) [Example 192]
EC50 [1, 5]: 0.101 µM | EC50 [2]: 0.045 µM | EC50 [3, 6]: 8.67 µM | EC50 [4]: 0.029 µM

CCC(=O)OC1C(c2ccc3c(N)ncnn23)OC(C#N)(COP(=O)(NC(C)C(=O)OCC2COC2)Oc2ccccc2)C1OC(=O)CC (single isomer, unassigned) [Example 205]
EC50 [1, 5]: 0.286 µM | EC50 [2]: 0.021 µM | EC50 [3, 6]: 19 µM | EC50 [4]: 0.164 µM

CC(C)C(=O)OC1C(c2ccc3c(N)ncnn23)OC(C#N)(COP(=O)(NC(C)C(=O)OCC2CCC(N)CC2)Oc2ccccc2)C1OC(=O)C(C)C (single isomer, unassigned) [Example 208]
EC50 [1, 5]: 15.2 µM | EC50 [2]: 0.215 µM | EC50 [3, 6]: > 50 µM | EC50 [4]: 2.12 µM

CC(C)C(=O)OC1C(c2ccc3c(N)ncnn23)OC(C#N)(COP(=O)(NC(C)C(=O)OCC2CCC(N)CC2)Oc2ccccc2)C1OC(=O)C(C)C (single isomer, unassigned) [Example 209]
EC50 [1, 5]: 8.52 µM | EC50 [2]: 0.168 µM | EC50 [3, 6]: 31.4 µM | EC50 [4]: 1.57 µM

C[C@H](N[P@](=O)(OC[C@@]1(C#N)O[C@@H](c2ccc3c(N)ncnn23)C(OC(=O)c2ccccc2)[C@@H]1OC(=O)c1ccccc1)Oc1ccccc1)C(=O)OC1CCCCC1 (stereo in doubt) [Example 83, (2R,3S,4R,5S)-5-(4-aminopyrrolo[2,1-f][1,2,4]triazin-7-yl)-2-cyano-2-((((S)-(((S)-1-(cyclohexyloxy)-1-oxopropan-2-yl)amino)(phenoxy)phosphoryl)oxy)methyl) tetrahydrofuran-3,4-diyl dibenzoate]
EC50 [1, 7]: 17.4 µM | EC50 [2, 8]: > 5 µM | EC50 [3, 9]: 5.16 µM | EC50 [4, 10]: > 100 µM

CCC(=O)OC1[C@H](c2ccc3c(N)ncnn23)O[C@](C#N)(COP(=O)(N[C@@H](C)C(=O)OCC2CCOCC2)Oc2ccccc2)[C@H]1OC(=O)CC (stereo in doubt) [Example 107, (2R,3S,4R,5S)-5-(4-aminopyrrolo[2,1-f][1,2,4]triazin-7-yl)-2-cyano-2-((((((S)-1-oxo-1-((tetrahydro-2H-pyran-4-yl)methoxy)propan-2-yl)amino)(phenoxy)phosphoryl)oxy)methyl)tetrahydrofuran-3,4-diyl dipropionate]
EC50 [1, 7]: 0.388 µM | EC50 [2, 8]: 0.031 µM | EC50 [3, 9]: 22.4 µM | EC50 [4, 10]: 0.098 µM

CC(=O)OC1[C@H](c2ccc3c(N)ncnn23)O[C@](C#N)(COP(=O)(N[C@@H](C)C(=O)OCC2CCOCC2)Oc2ccccc2)[C@H]1OC(C)=O (stereo in doubt) [Example 110, (2R,3S,4R,5S)-5-(4-aminopyrrolo[2,1-f][1,2,4]triazin-7-yl)-2-cyano-2-((((((S)-1-oxo-1-((tetrahydro-2H-pyran-4-yl)methoxy)propan-2-yl)amino)(phenoxy)phosphoryl)oxy)methyl)tetrahydrofuran-3,4-diyl diacetate]
EC50 [1, 7]: 2.51 µM | EC50 [2, 8]: 0.04 µM | EC50 [3, 9]: 56.3 µM | EC50 [4, 10]: 0.327 µM

CC(=O)OC1[C@H](c2ccc3c(N)ncnn23)O[C@](C#N)(COP(=O)(N[C@@H](C)C(=O)OCC2CCN(CC(F)(F)F)CC2)Oc2ccccc2)[C@H]1OC(C)=O (stereo in doubt) [Example 118, (2R,3S,4R,5S)-5-(4-aminopyrrolo[2,1-f][1,2,4]triazin-7-yl)-2-cyano-2-((((((S)-1-oxo-1-((1-(2,2,2-trifluoroethyl)piperidin-4-yl)methoxy)propan-2-yl)amino)(phenoxy)phosphoryl)oxy)methyl)tetrahydrofuran-3,4-diyl diacetate]
EC50 [1, 7]: 0.736 µM | EC50 [2, 8]: 0.026 µM | EC50 [3, 9]: 54.4 µM | EC50 [4, 10]: 0.224 µM

CC(C)CCC(=O)O[C@H]1[C@H](c2ccc3c(N)ncnn23)O[C@](C#N)(CO[P@@](=O)(N[C@@H](C)C(=O)OC2CCCCC2)Oc2ccccc2)[C@H]1OC(=O)CCC(C)C [Example 78, (2R,3S,4S,5S)-5-(4-aminopyrrolo[2,1-f][1,2,4]triazin-7-yl)-2-cyano-2-((((S)-(((S)-1-(cyclohexyloxy)-1-oxopropan-2-yl)amino)(phenoxy)phosphoryl)oxy)methyl) tetrahydrofuran-3,4-diyl bis(4-methylpentanoate)]
EC50 [1, 7]: 6.52 µM | EC50 [2, 8]: 0.71 µM | EC50 [3, 9]: 31.8 µM | EC50 [4, 10]: 1.35 µM

CC(C)C(=O)O[C@H]1[C@H](c2ccc3c(N)ncnn23)O[C@](C#N)(CO[P@@](=O)(N[C@@H](C)C(=O)O[C@H]2CC[C@H](C(F)(F)F)CC2)Oc2ccccc2)[C@H]1OC(=O)C(C)C [Example 79, (2R,3S,4S,5S)-5-(4-Aminopyrrolo[2,1-f][1,2,4]triazin-7-yl)-2-cyano-2-((((S)-(((S)-1-oxo-1-((trans-4-(trifluoromethyl)cyclohexyl)oxy)propan-2-yl)amino) (phenoxy)phosphoryl)oxy)methyl)tetrahydrofuran-3,4-diyl bis(2-methylpropanoate)]
EC50 [1, 7]: 0.217 µM | EC50 [2, 8]: 0.019 µM | EC50 [3, 9]: 12.4 µM | EC50 [4, 10]: 0.105 µM
